ChEMBL document CHEMBL3045168, “Thiamethoxam acts as a target-site synergist of spinosad in resistant strains of Frankliniella occidentalis” (2013)
≈ marks a conversion by molar mass, not a printed value.

Legend:
[1] = system: Frankliniella occidentalis; test: Insecticidal activity against Frankliniella occidentalis R1S (western flower thrips) in compound treated sweet pepper leaf assessed as mortality at 25 +/- 2 degC by leaf dip method; format: functional; settings: in Capsicum annuum, foliar
[2] = system: Frankliniella occidentalis; test: Insecticidal activity against Frankliniella occidentalis PPP (western flower thrips) in compound treated sweet pepper leaf assessed as mortality at 25 +/- 2 degC by leaf dip method; format: functional; settings: in Capsicum annuum, foliar
[3] = system: Frankliniella occidentalis; test: Insecticidal activity against Frankliniella occidentalis TFB (western flower thrips) in compound treated sweet pepper leaf assessed as mortality at 25 +/- 2 degC by leaf dip method; format: functional; settings: in Capsicum annuum, foliar
[4] = system: Frankliniella occidentalis; test: Resistance factor, LC50 for Frankliniella occidentalis R1S (western flower thrips) to LC50 for Frankliniella occidentalis TFR; format: functional
[5] = system: Frankliniella occidentalis; test: Resistance factor, LC50 for Frankliniella occidentalis PPP (western flower thrips) to LC50 for Frankliniella occidentalis TFR; format: functional
[6] = system: Frankliniella occidentalis; test: Insecticidal activity against Frankliniella occidentalis SPI5 (western flower thrips) in compound treated sweet pepper leaf assessed as mortality at 150 mg/l at 25 +/- 2 degC by leaf dip method; format: functional; settings: SPI5, in Capsicum annuum, foliar
[7] = system: Frankliniella occidentalis; test: Insecticidal activity against Frankliniella occidentalis TFA (western flower thrips) in compound treated sweet pepper leaf assessed as mortality at 150 mg/l at 25 +/- 2 degC by leaf dip method; format: functional; settings: in Capsicum annuum, foliar
[8] = system: Frankliniella occidentalis; test: Insecticidal activity against Frankliniella occidentalis R1 (western flower thrips) in compound treated sweet pepper leaf assessed as mortality at 150 mg/l at 25 +/- 2 degC by leaf dip method; format: functional; settings: R1, in Capsicum annuum, foliar
[9] = system: Frankliniella occidentalis; test: Insecticidal activity against Frankliniella occidentalis TFB (western flower thrips) in compound treated sweet pepper leaf assessed as mortality at 150 mg/l at 25 +/- 2 degC by leaf dip method; format: functional; settings: in Capsicum annuum, foliar
[10] = system: Frankliniella occidentalis; test: Insecticidal activity against Frankliniella occidentalis R1S (western flower thrips) in compound treated sweet pepper leaf assessed as mortality at 1000 mg/l at 25 +/- 2 degC by leaf dip method; settings: in Capsicum annuum, foliar
[11] = system: Frankliniella occidentalis; test: Insecticidal activity against Frankliniella occidentalis TFB (western flower thrips) in compound treated sweet pepper leaf assessed as mortality at 216 mg/l at 25 +/- 2 degC by leaf dip method; format: functional; settings: in Capsicum annuum, foliar
[12] = system: Frankliniella occidentalis; test: Insecticidal activity against Frankliniella occidentalis SPI5 (western flower thrips) in compound treated sweet pepper leaf assessed as mortality at 216 mg/l at 25 +/- 2 degC by leaf dip method; format: functional; settings: SPI5, in Capsicum annuum, foliar
[13] = system: Frankliniella occidentalis; test: Insecticidal activity against Frankliniella occidentalis TFA (western flower thrips) in compound treated sweet pepper leaf assessed as mortality at 216 mg/l at 25 +/- 2 degC by leaf dip method; format: functional; settings: in Capsicum annuum, foliar
[14] = system: Frankliniella occidentalis; test: Insecticidal activity against Frankliniella occidentalis R1 (western flower thrips) in compound treated sweet pepper leaf assessed as mortality at 216 mg/l at 25 +/- 2 degC by leaf dip method; format: functional; settings: R1, in Capsicum annuum, foliar
[15] = system: Frankliniella occidentalis; test: Insecticidal activity against Frankliniella occidentalis SPI5 (western flower thrips) in compound treated sweet pepper leaf assessed as mortality at 50 mg/l at 25 +/- 2 degC by leaf dip method; format: functional; settings: SPI5, in Capsicum annuum, foliar
[16] = system: Frankliniella occidentalis; test: Insecticidal activity against Frankliniella occidentalis TFA (western flower thrips) in compound treated sweet pepper leaf assessed as mortality at 50 mg/l at 25 +/- 2 degC by leaf dip method; format: functional; settings: in Capsicum annuum, foliar
[17] = system: Frankliniella occidentalis; test: Insecticidal activity against Frankliniella occidentalis R1 (western flower thrips) in compound treated sweet pepper leaf assessed as mortality at 50 mg/l at 25 +/- 2 degC by leaf dip method; format: functional; settings: R1, in Capsicum annuum, foliar
[18] = system: Frankliniella occidentalis; test: Insecticidal activity against Frankliniella occidentalis TFB (western flower thrips) in compound treated sweet pepper leaf assessed as mortality at 50 mg/l at 25 +/- 2 degC by leaf dip method; format: functional; settings: in Capsicum annuum, foliar
[19] = system: Frankliniella occidentalis; test: Insecticidal activity against Frankliniella occidentalis MOJO (western flower thrips) in compound treated sweet pepper leaf assessed as mortality at 25 +/- 2 degC by leaf dip method; format: functional; settings: in Capsicum annuum, foliar
[20] = system: Frankliniella occidentalis; test: Insecticidal activity against Frankliniella occidentalis TF (western flower thrips) in compound treated sweet pepper leaf assessed as mortality at 25 +/- 2 degC by leaf dip method; format: functional; settings: in Capsicum annuum, foliar
[21] = system: Frankliniella occidentalis; test: Resistance factor, LC50 for Frankliniella occidentalis R1S (western flower thrips) to LC50 for Frankliniella occidentalis TF; format: functional
[22] = system: Frankliniella occidentalis; test: Resistance factor, LC50 for Frankliniella occidentalis MOJO (western flower thrips) to LC50 for Frankliniella occidentalis TF; format: functional
[23] = system: Frankliniella occidentalis; test: Insecticidal activity against Frankliniella occidentalis R1S (western flower thrips) in compound treated sweet pepper leaf assessed as mortality at 50 mg/l at 25 +/- 2 degC by leaf dip method; format: functional; settings: in Capsicum annuum, foliar

C/C(=N\C#N)N(C)Cc1ccc(Cl)nc1 [ACETAMIPRID] was tested, and the LC50 [1] was 119 µg/mL (≈ 534 µM), the LC50 [2] was 116 µg/mL (≈ 521 µM) and the LC50 [3] was 663 µg/mL (≈ 2980 µM). It also gave a RatioLC50 [4] of 0.2 and a RatioLC50 [5] of 0.2.
Work on O=[N+]([O-])/N=C1\NCCN1Cc1ccc(Cl)nc1 [IMIDACLOPRID] yielded a mortality at 150 µg/mL [6] of 0%, a mortality at 150 µg/mL [7] of 6.7% and a mortality at 150 µg/mL [8] of 10%. It also gave a mortality at 150 µg/mL [9] of 3.3%.
Compound CCCCOCCOCCOCc1cc2c(cc1CCC)OCO2 [PIPERONYL BUTOXIDE] has a mortality at 1000 µg/mL [10] of 10%.
N#C/N=C1\SCCN1Cc1ccc(Cl)nc1 [THIACLOPRID] showed a mortality at 216 µg/mL [11] of 10%, a mortality at 216 µg/mL [12] of 3.3% and a mortality at 216 µg/mL [13] of 3.3%. The mortality at 216 µg/mL [14] was 0%.
CN1COCN(Cc2cnc(Cl)s2)/C1=N\[N+](=O)[O-] [THIAMETHOXAM] was tested, and the LC50 [1] was 298 µg/mL (≈ 1020 µM), the LC50 [2] was 1670 µg/mL (≈ 5740 µM) and the LC50 [3] was 352 µg/mL (≈ 1210 µM). For the same compound, the mortality at 50 µg/mL [15] was 13.3%, the mortality at 50 µg/mL [16] was 10% and the mortality at 50 µg/mL [17] was 16.7%. The mortality at 50 µg/mL [18] was 20%, the LC50 [19] was 209 µg/mL (≈ 717 µM) and the LC50 [20] was 158 µg/mL (≈ 541 µM). For the same compound, the RatioLC50 [21] was 3, the RatioLC50 [22] was 1 and the mortality at 50 µg/mL [23] was 0%. For the same compound, the RatioLC50 [4] was 0.8 and the RatioLC50 [5] was 4.8.
